Assays:
[1] = tested on: NQO1 mRNA in BEAS-2B cells; experiment: Beas2B NQO1 mRNA cell based assay; parameters: species or system human; details: Homo sapiens, BEAS-2B, 24 h, 24 h compound treatment, increase in NQO1 mRNA vs vehicle (0.1% DMSO), read-out: EC50
How it was run: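 Relative NQO1 transcript level derived by ΔΔCT with human β-actin as internal control, using direct-lysate one-step RT-qPCR. Cells were BEAS-2B, plated overnight then treated with compound for 24 h.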

[2] = target: human KEAP1 (N-term, residues 321-609) (Homo sapiens, UniProt Q14145); experiment: biochemical;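 further: fluorescence polarization competition assay of Kelch domain binding to NRF2, 12-point 1:3 dilution series from 10 µM, read after 1 h at room temperature, floor 10 nM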
Chain of human KEAP1 (N-term, residues 321-609) (Q14145 321-609): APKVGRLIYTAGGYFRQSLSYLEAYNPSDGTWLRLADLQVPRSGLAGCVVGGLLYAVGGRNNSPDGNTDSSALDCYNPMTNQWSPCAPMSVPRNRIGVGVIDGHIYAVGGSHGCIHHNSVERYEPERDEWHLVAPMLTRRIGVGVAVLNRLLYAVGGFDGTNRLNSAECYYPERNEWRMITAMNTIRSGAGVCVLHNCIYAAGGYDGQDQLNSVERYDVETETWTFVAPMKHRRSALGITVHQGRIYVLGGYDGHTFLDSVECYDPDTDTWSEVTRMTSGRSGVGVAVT

Structure (SMILES)	IC50 [2] [nM]	EC50 [1] [nM]
Cn1cnc2cc(COc3ccc(Br)c4c3[C@@H](CN3Cc5ccccc5C3=O)N(C(=O)[C@@H]3CCCC[C@@H]3C(=O)O)CC4)ccc21 [Example 33, (1S,2R)-2-((S)-5-bromo-8-((1-methyl-1H-benzo[d]imidazol-5-yl)methoxy)-1-((1-oxoisoindolin-2-yl)methyl)-1,2,3,4-tetrahydroisoquinoline-2-carbonyl)cyclohexane-1-carboxylic acid]	5.1	22
COc1cc(COc2ccc(Br)c3c2[C@@H](CN2Cc4ccccc4C2=O)N(C(=O)[C@@H]2CCCC[C@@H]2C(=O)O)CC3)cc2nnn(C)c12 [Example 37, (1S,2R)-2-((S)-5-bromo-8-((7-methoxy-1-methyl-1H-benzo[d][1,2,3]triazol-5-yl)methoxy)-1-((1-oxoisoindolin-2-yl)methyl)-1,2,3,4-tetrahydroisoquinoline-2-carbonyl)cyclohexane-1-carboxylic acid]	13	44
Cn1nnc2cc(COc3ccc(Br)c4c3[C@@H](CN3Cc5ccccc5C3=O)N(C(=O)[C@@H]3CCCC[C@@H]3C(=O)O)CC4)ccc21 [Example 38, (1S,2R)-2-((S)-5-bromo-8-((1-methyl-1H-benzo[d][1,2,3]triazol-5-yl)methoxy)-1-((1-oxoisoindolin-2-yl)methyl)-1,2,3,4-tetrahydroisoquinoline-2-carbonyl)cyclohexane-1-carboxylic acid]	9.3	17
Cn1nnc(COc2ccc(Br)c3c2[C@@H](CN2Cc4ccccc4C2=O)N(C(=O)[C@@H]2CCCC[C@@H]2C(=O)O)CC3)c1C(F)F [Example 41, (1S,2R)-2-((S)-5-bromo-8-((5-(difluoromethyl)-1-methyl-1H-1,2,3-triazol-4-yl)methoxy)-1-((1-oxoisoindolin-2-yl)methyl)-1,2,3,4-tetrahydroisoquinoline-2-carbonyl)cyclohexane-1-carboxylic acid]	5.2	1.5
O=C(O)[C@H]1CCCC[C@H]1C(=O)N1CCc2c(Br)ccc(OCc3nnc4n3CCCC4)c2[C@H]1CN1Cc2ccccc2C1=O [Example 44, (1S,2R)-2-((S)-5-bromo-1-((1-oxoisoindolin-2-yl)methyl)-8-((5,6,7,8-tetrahydro-[1,2,4]triazolo[4,3-a]pyridin-3-yl)methoxy)-1,2,3,4-tetrahydroisoquinoline-2-carbonyl)cyclohexane-1-carboxylic acid]	4.2	10
Cn1nnc2cc(COc3ccc(Cl)c4c3[C@@H](CN3Cc5ccccc5C3=O)N(C(=O)[C@@H]3CCCC[C@@H]3C(=O)O)CC4)ccc21 [Example 48, (1S,2R)-2-((S)-5-chloro-8-((1-methyl-1H-benzo[d][1,2,3]triazol-5-yl)methoxy)-1-((1-oxoisoindolin-2-yl)methyl)-1,2,3,4-tetrahydroisoquinoline-2-carbonyl)cyclohexane-1-carboxylic acid]	8	4.4
Cc1cc(COc2ccc(Cl)c3c2[C@@H](CN2Cc4ccccc4C2=O)N(C(=O)[C@@H]2CCCC[C@@H]2C(=O)O)CC3)no1 [Example 49, (1S,2R)-2-((S)-5-chloro-8-((5-methylisoxazol-3-yl)methoxy)-1-((1-oxoisoindolin-2-yl)methyl)-1,2,3,4-tetrahydroisoquinoline-2-carbonyl)cyclohexane-1-carboxylic acid]	11	19
O=C(O)[C@H]1CCCC[C@H]1C(=O)N1CCc2c(Cl)ccc(OCc3nnc4ccccn34)c2[C@H]1CN1Cc2ccccc2C1=O [Example 50]	7.7	2
O=C(O)[C@H]1CCCC[C@H]1C(=O)N1CCc2c(Cl)ccc(OCc3nccn3CC(F)(F)F)c2[C@H]1CN1Cc2ccccc2C1=O [Example 51, (1S,2R)-2-((S)-5-chloro-1-((1-oxoisoindolin-2-yl)methyl)-8-((1-(2,2,2-trifluoroethyl)-1H-imidazol-2-yl)methoxy)-1,2,3,4-tetrahydroisoquinoline-2-carbonyl)cyclohexane-1-carboxylic acid]	10	110
O=C(O)[C@H]1CCCC[C@H]1C(=O)N1CCc2c(Cl)ccc(OCc3nccn3CC(F)F)c2[C@H]1CN1Cc2ccccc2C1=O [Example 52, (1S,2R)-2-((S)-5-chloro-8-((1-(2,2-difluoroethyl)-1H-imidazol-2-yl)methoxy)-1-((1-oxoisoindolin-2-yl)methyl)-1,2,3,4-tetrahydroisoquinoline-2-carbonyl)cyclohexane-1-carboxylic acid]	13	140
Cn1nnc(COc2ccc(Cl)c3c2[C@@H](CN2Cc4ccccc4C2=O)N(C(=O)[C@@H]2CCCC[C@@H]2C(=O)O)CC3)c1C(F)F [Example 53, (1S,2R)-2-((S)-5-chloro-8-((5-(difluoromethyl)-1-methyl-1H-1,2,3-triazol-4-yl)methoxy)-1-((1-oxoisoindolin-2-yl)methyl)-1,2,3,4-tetrahydroisoquinoline-2-carbonyl)cyclohexane-1-carboxylic acid]	6.2	1.4
Cn1nnc(COc2ccc(Cl)c3c2[C@@H](CN2Cc4ccccc4C2=O)N(C(=O)[C@@H]2CCCC[C@@H]2C(=O)O)CC3)c1C(F)(F)F [Example 54, (1S,2R)-2-((S)-5-Chloro-8-((1-methyl-5-(trifluoromethyl)-1H-1,2,3-triazol-4-yl)methoxy)-1-((1-oxoisoindolin-2-yl)methyl)-1,2,3,4-tetrahydroisoquinoline-2-carbonyl)cyclohexane-1-carboxylic acid]	3.6	7.2
CCn1ccc(COc2ccc(Cl)c3c2[C@@H](CN2Cc4ccccc4C2=O)N(C(=O)[C@@H]2CCCC[C@@H]2C(=O)O)CC3)n1 [Example 55, (1S,2R)-2-((S)-5-chloro-8-((1-ethyl-1H-pyrazol-3-yl)methoxy)-1-((1-oxoisoindolin-2-yl)methyl)-1,2,3,4-tetrahydroisoquinoline-2-carbonyl)cyclohexane-1-carboxylic acid]	5.6	73

Second part, led by results:

IC50 [2] [nM]	Structure (SMILES)	EC50 [1] [nM]
5	Cn1cc(COc2ccc(Br)c3c2[C@@H](CN2Cc4ccccc4C2=O)N(C(=O)[C@@H]2CCCC[C@@H]2C(=O)O)CC3)nn1 [Example 34, (1S,2R)-2-((S)-5-bromo-8-((1-methyl-1H-1,2,3-triazol-4-yl)methoxy)-1-((1-oxoisoindolin-2-yl)methyl)-1,2,3,4-tetrahydroisoquinoline-2-carbonyl)cyclohexane-1-carboxylic acid]	3.3
9.9	CC(C)n1cc(COc2ccc(Br)c3c2[C@@H](CN2Cc4ccccc4C2=O)N(C(=O)[C@@H]2CCCC[C@@H]2C(=O)O)CC3)nn1 [Example 35, (1S,2R)-2-((S)-5-Bromo-8-((1-isopropyl-1H-1,2,3-triazol-4-yl)methoxy)-1-((1-oxoisoindolin-2-yl)methyl)-1,2,3,4-tetrahydroisoquinoline-2-carbonyl)cyclohexane-1-carboxylic acid]	7.5
11	Cc1nnc(COc2ccc(Br)c3c2[C@@H](CN2Cc4ccccc4C2=O)N(C(=O)[C@@H]2CCCC[C@@H]2C(=O)O)CC3)o1 [Example 36, (1S,2R)-2-((S)-5-bromo-8-((5-methyl-1,3,4-oxadiazol-2-yl)methoxy)-1-((1-oxoisoindolin-2-yl)methyl)-1,2,3,4-tetrahydroisoquinoline-2-carbonyl)cyclohexane-1-carboxylic acid]	130
8.3	Cn1cnc(COc2ccc(Br)c3c2[C@@H](CN2Cc4ccccc4C2=O)N(C(=O)[C@@H]2CCCC[C@@H]2C(=O)O)CC3)n1 [Example 39, (1S,2R)-2-((S)-5-bromo-8-((1-methyl-1H-1,2,4-triazol-3-yl)methoxy)-1-((1-oxoisoindolin-2-yl)methyl)-1,2,3,4-tetrahydroisoquinoline-2-carbonyl)cyclohexane-1-carboxylic acid]	45
9	CC(C)n1ccnc1COc1ccc(Br)c2c1[C@@H](CN1Cc3ccccc3C1=O)N(C(=O)[C@@H]1CCCC[C@@H]1C(=O)O)CC2 [Example 40, (1S,2R)-2-((S)-5-bromo-8-((1-isopropyl-1H-imidazol-2-yl)methoxy)-1-((1-oxoisoindolin-2-yl)methyl)-1,2,3,4-tetrahydroisoquinoline-2-carbonyl)cyclohexane-1-carboxylic acid]	94
7.9	CCn1cnnc1COc1ccc(Br)c2c1[C@@H](CN1Cc3ccccc3C1=O)N(C(=O)[C@@H]1CCCC[C@@H]1C(=O)O)CC2 [Example 42, (1S,2R)-2-((S)-5-bromo-8-((4-ethyl-4H-1,2,4-triazol-3-yl)methoxy)-1-((1-oxoisoindolin-2-yl)methyl)-1,2,3,4-tetrahydroisoquinoline-2-carbonyl)cyclohexane-1-carboxylic acid]	18
10	CCn1cnc(COc2ccc(Br)c3c2[C@@H](CN2Cc4ccccc4C2=O)N(C(=O)[C@@H]2CCCC[C@@H]2C(=O)O)CC3)c1C#N [Example 43, (1S,2R)-2-((S)-5-bromo-8-((5-cyano-1-ethyl-1H-imidazol-4-yl)methoxy)-1-((1-oxoisoindolin-2-yl)methyl)-1,2,3,4-tetrahydroisoquinoline-2-carbonyl)cyclohexane-1-carboxylic acid]	18
4.9	CC(Oc1ccc(Br)c2c1[C@@H](CN1Cc3ccccc3C1=O)N(C(=O)[C@@H]1CCCC[C@@H]1C(=O)O)CC2)c1cn(C)nn1 (stereo partly drawn) [Example 45, (1S,2R)-2-((1S)-5-bromo-8-(1-(1-methyl-1H-1,2,3-triazol-4-yl)ethoxy)-1-((1-oxoisoindolin-2-yl)methyl)-1,2,3,4-tetrahydroisoquinoline-2-carbonyl)cyclohexane-1-carboxylic acid]	110
